Laboratory results reported in ChEMBL document CHEMBL4706692, “CC-90009: A Cereblon E3 Ligase Modulating Drug That Promotes Selective Degradation of GSPT1 for the Treatment of Acute Myeloid Leukemia” (J Med Chem, 2021).

Legend:
THLE-2 = experiment: Cytotoxicity against human THLE-2 cells assessed as cell viability incubated for 72 hrs by cell titer glo assay; type: cell-based; conditions: THLE-2, 72 h
KG-1 = experiment: Antiproliferative activity against human KG-1 cells assessed as reduction in cell viability incubated for 72 hrs by cell titer glo assay; type: functional, cell-based; conditions: KG-1, 72 h
[1] = Selectivity index, ratio of IC50 for cytotoxicity against human THLE-2 cells to IC50 for antiproliferative activity against human KG-1 cells
OCI-AML-3 = experiment: Antiproliferative activity against human OCI-AML3 cells assessed as reduction in cell viability incubated for 72 hrs by cell titer glo assay; type: functional, cell-based; conditions: OCI-AML-3, 72 h
NB-4 = experiment: Antiproliferative activity against human NB4 cells assessed as reduction in cell viability incubated for 72 hrs by cell titer glo assay; type: functional, cell-based; conditions: NB-4, 72 h
MV4-11 = experiment: Antiproliferative activity against human MV4-11 cells assessed as reduction in cell viability incubated for 72 hrs by cell titer glo assay; type: functional, cell-based; conditions: MV4-11, 72 h
U-937 = experiment: Antiproliferative activity against human U937 cells assessed as reduction in cell viability incubated for 72 hrs by cell titer glo assay; type: functional, cell-based; conditions: U-937, 72 h
HL-60 = experiment: Antiproliferative activity against human HL-60 cells assessed as reduction in cell viability incubated for 72 hrs by cell titer glo assay; type: functional, cell-based; conditions: HL-60, 72 h
MOLM-13 = experiment: Antiproliferative activity against human MOLM-13 cells assessed as reduction in cell viability incubated for 72 hrs by cell titer glo assay; type: functional, cell-based; conditions: MOLM-13, 72 h
KG-1a = experiment: Antiproliferative activity against human KG-1a cells assessed as reduction in cell viability incubated for 72 hrs by cell titer glo assay; type: functional, cell-based
Kasumi 1 = experiment: Antiproliferative activity against human Kasumi 1 cells assessed as reduction in cell viability incubated for 72 hrs by cell titer glo assay; type: functional, cell-based; conditions: Kasumi 1, 72 h
OCI-AML2 = experiment: Antiproliferative activity against human OCI-AML2 cells assessed as reduction in cell viability incubated for 72 hrs by cell titer glo assay; type: functional, cell-based; conditions: OCI-AML2, 72 h

SMILES | IC50 (THLE-2) [nM] | IC50 (KG-1) [nM] | Ratio IC50 [1] | IC50 (OCI-AML-3) [nM] | IC50 (NB-4) [nM] | IC50 (MV4-11) [nM] | IC50 (U-937) [nM] | IC50 (HL-60) [nM] | IC50 (MOLM-13) [nM] | IC50 (KG-1a) [nM] | IC50 (Kasumi 1) [nM] | IC50 (OCI-AML2) [nM]
O=C(Cc1ccccc1)NCc1ccc2c(c1)CN(C1CCC(=O)NC1=O)C2=O (centres undefined) | 231 | 37 | 6 | – | – | – | – | – | – | – | – | –
Cc1ccc(NC(=O)NCc2ccc3c(c2)CN(C2CCC(=O)NC2=O)C3=O)cc1Cl (centres undefined) | 11 | 7 | – | 73 | 2 | 5 | 11 | 3 | 8 | 8 | 10 | 21
